As a reminder, the Km is the concentration of substrate that gives half-maximal velocity.

The subject of assay [1] is T1, BrGH3A.
T1 construct: C-FnIII-N domain order is natural
Kind of assay: p-nitrophenol release, absorbance […] nm. As to conditions: 0.1 M sodium citrate, pH 5.0, 40°C, 5 min. In kind it is biochemical, metagenome: bovine ruminal fluid.

Assay [2] deals with T1, BrGH3A. Kind of assay: glucose release, glucose oxidase/ABTS. In kind it is biochemical, metagenome: bovine ruminal fluid. As to conditions: 0.1 M sodium citrate, pH 5.0, 40°C, 5 min. From the text: glucose release, glucose oxidase/ABTS on BrGH3A
Setting [3] is: released glucose divided by two.

The structures appear in SMILES notation.

As for `O=[N+]([O-])c1ccc(O[C@@H]2OC[C@@H](O)[C@H](O)[C@H]2O)cc1` [pNP-Xyl, p-nitrophenyl-β-D-xylopyranoside], the Michaelis constant (Km) with BrGH3A [1] is 2.12 ± 0.1 mM.
The same measure, in the same setting: next, `O=[N+]([O-])c1ccc(O[C@@H]2O[C@H](CO)[C@@H](O)[C@H](O)[C@H]2O)cc1` [pNP-Glc, p-nitrophenyl-β-D-glucopyranoside]: 0.6 ± 0.04 mM; `O=[N+]([O-])c1ccc(O[C@@H]2OC[C@H](O)[C@H](O)[C@H]2O)cc1` [pNP-Ara, p-nitrophenyl-α-L-arabinopyranoside]: 9.95 ± 1.16 mM.
Regarding `OC[C@H]1O[C@@H](O[C@H]2[C@H](O)[C@@H](CO)OC(O)[C@@H]2O)[C@H](O)[C@@H](O)[C@@H]1O` (some centres unmarked) [Laminaribiose], the Km with BrGH3A [2] (setting [3]) turned out to be 14.3 ± 1.3 mM.
In the case of `C[C@H]1O[C@@H](Oc2ccc([N+](=O)[O-])cc2)[C@H](O)[C@@H](O)[C@H]1O` [pNP-Fuc, p-nitrophenyl-β-D-fucopyranoside], the Km with BrGH3A [1] turned out to be 7.96 ± 0.64 mM.
On the same count and under the same terms, next, `O=[N+]([O-])c1ccc(O[C@@H]2O[C@H](CO)[C@H](O)[C@H](O)[C@H]2O)cc1` [pNP-Gal, p-nitrophenyl-β-D-galactopyranoside]: 7.55 ± 0.9 mM.
With `OC[C@H]1O[C@@H](O[C@@H]2[C@@H](O)[C@H](O[C@H]3[C@H](O)[C@@H](CO)OC(O)[C@@H]3O)O[C@H](CO)[C@H]2O)[C@H](O)[C@@H](O)[C@@H]1O` (some centres unmarked) [Laminaritriose], in the assay with BrGH3A [2] (calculated as total released glucose), the Michaelis constant (Km) is 5.4 ± 0.42 mM.
As to `OC[C@H]1O[C@@H](O[C@H]2[C@H](O)[C@@H](O)C(O)O[C@@H]2CO)[C@H](O)[C@@H](O)[C@@H]1O` (some centres unmarked) [Cellobiose], the Km with BrGH3A [2] (setting [3]) was found to be 30 ± 3.9 mM.

The record behind these values is PMC11233000, “Characterization of BrGH3A, a bovine rumen-derived glycoside hydrolase family 3 β-glucosidase with a permuted domain arrangement” (PLOS ONE, 2024).
